Measurements published in the NIST ThermoML archive (doi:10.1021/je0400052).
Numbers after ± are expanded uncertainties.

Tests used:
[1] = 101.33 kPa, Liquid
[2] = refractive index (Na D-line) (dimensionless); details: 101.33 kPa, Liquid
[3] = xn = mol fraction of the nth substance listed; details: 101.3 kPa, Liquid
[4] = refractive index (Na D-line) (dimensionless); xn = mol fraction of the nth substance listed; details: 101.3 kPa, Liquid

Cc1ccccc1C [1,2-dimethylbenzene]
Details | mass density, [1] [kg/m3] | refractive index, [2] | viscosity, [1] [mPa·s]
303.15 K | 870.8 ± 1.9 | 1.5001 ± 0.0025 | 0.695 ± 0.018
313.15 K | 863.3 ± 2 | 1.4981 ± 0.0025 | 0.621 ± 0.017

Cc1cccc(C)c1 [1,3-dimethylbenzene]
Details | mass density, [1] [kg/m3] | refractive index, [2] | viscosity, [1] [mPa·s]
303.15 K | 855.3 ± 1.8 | 1.492 ± 0.0025 | 0.557 ± 0.015
313.15 K | 847.1 ± 2 | 1.4901 ± 0.0025 | 0.508 ± 0.014

CCOC(=O)c1ccccc1 [ethyl benzoate] + CCc1ccccc1
Details | mass density, [3] [kg/m3] | refractive index, [4] | viscosity, [3] [mPa·s]
303.15 K, x1 = 0.0862 | 875.1 ± 3.6 | 1.492 ± 0.005 | 0.643 ± 0.017
303.15 K, x1 = 0.1804 | 892.6 ± 3.7 | 1.4932 ± 0.005 | 0.711 ± 0.019
303.15 K, x1 = 0.2589 | 910.2 ± 3.7 | 1.4934 ± 0.005 | 0.767 ± 0.02
303.15 K, x1 = 0.3522 | 927.2 ± 3.8 | 1.4942 ± 0.005 | 0.857 ± 0.022
303.15 K, x1 = 0.472 | 950.1 ± 3.9 | 1.496 ± 0.005 | 0.97 ± 0.025
303.15 K, x1 = 0.5625 | 967 ± 4 | 1.4968 ± 0.005 | 1.071 ± 0.027
303.15 K, x1 = 0.6722 | 984.9 ± 4.1 | 1.4971 ± 0.005 | 1.206 ± 0.03
303.15 K, x1 = 0.7675 | 1002 ± 4.2 | 1.4992 ± 0.005 | 1.33 ± 0.032
303.15 K, x1 = 0.8678 | 1019 ± 4.3 | 1.4998 ± 0.005 | 1.496 ± 0.036
303.15 K, x1 = 0.9325 | 1040.9 ± 4.4 | 1.5003 ± 0.005 | 1.615 ± 0.039
313.15 K, x1 = 0.0862 | 867 ± 3.9 | 1.4911 ± 0.005 | 0.57 ± 0.016
313.15 K, x1 = 0.1804 | 884.3 ± 4 | 1.4921 ± 0.005 | 0.629 ± 0.017
313.15 K, x1 = 0.2589 | 901.3 ± 4.1 | 1.493 ± 0.005 | 0.682 ± 0.018
313.15 K, x1 = 0.3522 | 918.1 ± 4.1 | 1.4937 ± 0.005 | 0.745 ± 0.02
313.15 K, x1 = 0.472 | 941.4 ± 4.2 | 1.4954 ± 0.005 | 0.844 ± 0.022
313.15 K, x1 = 0.5625 | 960.4 ± 4.3 | 1.4959 ± 0.005 | 0.937 ± 0.024
313.15 K, x1 = 0.6722 | 976.2 ± 4.4 | 1.4963 ± 0.005 | 1.063 ± 0.027
313.15 K, x1 = 0.7675 | 993 ± 4.5 | 1.4981 ± 0.005 | 1.169 ± 0.029
313.15 K, x1 = 0.8678 | 1009.7 ± 4.6 | 1.4992 ± 0.005 | 1.268 ± 0.031
313.15 K, x1 = 0.9325 | 1027.4 ± 4.7 | 1.4996 ± 0.005 | 1.335 ± 0.033

CCOC(=O)c1ccccc1 [ethyl benzoate] + Cc1ccc(C)cc1
Details | mass density, [3] [kg/m3] | refractive index, [4] | viscosity, [3] [mPa·s]
303.15 K, x1 = 0.0916 | 871.1 ± 3.5 | 1.4931 ± 0.005 | 0.622 ± 0.017
303.15 K, x1 = 0.1757 | 889.3 ± 3.6 | 1.4939 ± 0.005 | 0.679 ± 0.018
303.15 K, x1 = 0.2719 | 908.4 ± 3.7 | 1.4951 ± 0.005 | 0.765 ± 0.02
303.15 K, x1 = 0.3616 | 925.3 ± 3.8 | 1.4957 ± 0.005 | 0.837 ± 0.022
303.15 K, x1 = 0.4681 | 947.1 ± 3.9 | 1.4965 ± 0.005 | 0.951 ± 0.024
303.15 K, x1 = 0.5703 | 964.8 ± 4 | 1.497 ± 0.005 | 1.045 ± 0.026
303.15 K, x1 = 0.673 | 982.8 ± 4.1 | 1.4983 ± 0.005 | 1.181 ± 0.029
303.15 K, x1 = 0.7781 | 1000.8 ± 4.2 | 1.4988 ± 0.005 | 1.325 ± 0.032
303.15 K, x1 = 0.8651 | 1022.8 ± 4.3 | 1.4995 ± 0.005 | 1.469 ± 0.035
303.15 K, x1 = 0.937 | 1040.8 ± 4.4 | 1.5001 ± 0.005 | 1.603 ± 0.038
313.15 K, x1 = 0.0916 | 863 ± 3.9 | 1.4912 ± 0.005 | 0.55 ± 0.015
313.15 K, x1 = 0.1757 | 880.9 ± 4 | 1.4924 ± 0.005 | 0.606 ± 0.016
313.15 K, x1 = 0.2719 | 899.9 ± 4 | 1.4948 ± 0.005 | 0.686 ± 0.018
313.15 K, x1 = 0.3616 | 917.3 ± 4.1 | 1.495 ± 0.005 | 0.739 ± 0.019
313.15 K, x1 = 0.4681 | 937.5 ± 4.2 | 1.4956 ± 0.005 | 0.825 ± 0.021
313.15 K, x1 = 0.5703 | 956 ± 4.3 | 1.4963 ± 0.005 | 0.9 ± 0.023
313.15 K, x1 = 0.673 | 974 ± 4.4 | 1.4972 ± 0.005 | 1.008 ± 0.025
313.15 K, x1 = 0.7781 | 993.2 ± 4.5 | 1.4979 ± 0.005 | 1.126 ± 0.028
313.15 K, x1 = 0.8651 | 1010.2 ± 4.6 | 1.4989 ± 0.005 | 1.239 ± 0.03
313.15 K, x1 = 0.937 | 1028.2 ± 4.7 | 1.4996 ± 0.005 | 1.339 ± 0.033

CCOC(=O)c1ccccc1 [ethyl benzoate] + Cc1cccc(C)c1
Details | mass density, [3] [kg/m3] | refractive index, [4] | viscosity, [3] [mPa·s]
303.15 K, x1 = 0.0887 | 871.6 ± 3.6 | 1.4946 ± 0.005 | 0.612 ± 0.017
303.15 K, x1 = 0.1713 | 887.2 ± 3.7 | 1.4957 ± 0.005 | 0.676 ± 0.018
303.15 K, x1 = 0.2626 | 905.2 ± 3.7 | 1.4964 ± 0.005 | 0.759 ± 0.02
303.15 K, x1 = 0.3553 | 926 ± 3.8 | 1.497 ± 0.005 | 0.837 ± 0.022
303.15 K, x1 = 0.4588 | 946.8 ± 3.9 | 1.4974 ± 0.005 | 0.931 ± 0.024
303.15 K, x1 = 0.5707 | 966.5 ± 4 | 1.499 ± 0.005 | 1.055 ± 0.026
303.15 K, x1 = 0.6576 | 981.7 ± 4.1 | 1.4995 ± 0.005 | 1.161 ± 0.029
303.15 K, x1 = 0.7831 | 1002.2 ± 4.2 | 1.5003 ± 0.005 | 1.352 ± 0.033
303.15 K, x1 = 0.8832 | 1018.5 ± 4.3 | 1.5011 ± 0.005 | 1.5 ± 0.036
313.15 K, x1 = 0.0887 | 857.3 ± 3.9 | 1.4917 ± 0.005 | 0.547 ± 0.015
313.15 K, x1 = 0.1713 | 875 ± 4 | 1.4925 ± 0.005 | 0.601 ± 0.016
313.15 K, x1 = 0.2626 | 895.5 ± 4 | 1.4939 ± 0.005 | 0.664 ± 0.018
313.15 K, x1 = 0.3553 | 917.5 ± 4.1 | 1.4955 ± 0.005 | 0.732 ± 0.019
313.15 K, x1 = 0.4588 | 937.2 ± 4.2 | 1.4963 ± 0.005 | 0.809 ± 0.021
313.15 K, x1 = 0.5707 | 966.5 ± 4.4 | 1.4979 ± 0.005 | 0.91 ± 0.023
313.15 K, x1 = 0.6576 | 971.7 ± 4.4 | 1.4984 ± 0.005 | 0.997 ± 0.025
313.15 K, x1 = 0.7831 | 993.7 ± 4.5 | 1.4988 ± 0.005 | 1.146 ± 0.028
313.15 K, x1 = 0.8832 | 1009.8 ± 4.6 | 1.4993 ± 0.005 | 1.274 ± 0.031

CCOC(=O)c1ccccc1 [ethyl benzoate] + Cc1ccccc1C
Details | mass density, [3] [kg/m3] | refractive index, [4] | viscosity, [3] [mPa·s]
303.15 K, x1 = 0.0847 | 887.3 ± 3.6 | 1.4994 ± 0.005 | 0.758 ± 0.02
303.15 K, x1 = 0.1749 | 904.2 ± 3.7 | 1.4996 ± 0.005 | 0.837 ± 0.022
303.15 K, x1 = 0.2686 | 920.9 ± 3.8 | 1.4999 ± 0.005 | 0.909 ± 0.023
303.15 K, x1 = 0.3579 | 937.5 ± 3.8 | 1.5001 ± 0.005 | 1 ± 0.025
303.15 K, x1 = 0.4613 | 954 ± 4 | 1.5007 ± 0.005 | 1.085 ± 0.027
303.15 K, x1 = 0.56 | 972.3 ± 4 | 1.5009 ± 0.005 | 1.19 ± 0.029
303.15 K, x1 = 0.6668 | 988.1 ± 4.1 | 1.501 ± 0.005 | 1.312 ± 0.032
303.15 K, x1 = 0.7675 | 1001.3 ± 4.2 | 1.5011 ± 0.005 | 1.433 ± 0.035
303.15 K, x1 = 0.8768 | 1021.1 ± 4.3 | 1.5013 ± 0.005 | 1.566 ± 0.038
313.15 K, x1 = 0.0847 | 879.3 ± 3.9 | 1.4983 ± 0.005 | 0.676 ± 0.018
313.15 K, x1 = 0.1749 | 896.1 ± 4 | 1.4986 ± 0.005 | 0.732 ± 0.019
313.15 K, x1 = 0.2686 | 913.1 ± 4.1 | 1.4989 ± 0.005 | 0.8 ± 0.021
313.15 K, x1 = 0.3579 | 930.2 ± 4.2 | 1.4993 ± 0.005 | 0.864 ± 0.022
313.15 K, x1 = 0.4613 | 945.7 ± 4.3 | 1.4995 ± 0.005 | 0.937 ± 0.024
313.15 K, x1 = 0.56 | 963.8 ± 4.4 | 1.4997 ± 0.005 | 1.015 ± 0.026
313.15 K, x1 = 0.6668 | 980.8 ± 4.4 | 1.4999 ± 0.005 | 1.113 ± 0.028
313.15 K, x1 = 0.7675 | 992.7 ± 4.5 | 1.5001 ± 0.005 | 1.208 ± 0.03
313.15 K, x1 = 0.8768 | 1010.9 ± 4.6 | 1.5003 ± 0.005 | 1.31 ± 0.032
